Test results: patent publication US20250368635A1, “HETEROARYL DERIVATIVE COMPOUND, AND USES THEREOF” (VORONOI, INC., priority 2022, published 2025)

Tested on: Ba/F3 cells expressing EGFR L858R/C797S (EGFR LC)
Assay: Inhibition of proliferation of Ba/F3 cells expressing EGFR L858R/C797S (CellTiter-Glo, 72 h)
Format: cell-based
Conditions: Mus musculus, BaF3, 72 hours treatment
Description: (§1) The following experiment was performed to evaluate the inhibitory activity of the compounds according to the present invention on the proliferation of Ba/F3 cells expressing EGFR Del19/C797S (EGFR DC) and EGFR L858R/C797S (EGFR LC) mutations.
(§2) Ba/F3 cells were cultured using medium (RPMI-1640) containing 10% fetal bovine serum (FBS) and 5 ng/ml IL-3 (R&D Systems). The transduced Ba/F3 cells were cultured by adding 1 μg/ml puromycin (Invitrogen) to the same medium.
(§3) 24 hours prior to treatment with compounds, 3,000 to 5,000 cells were seeded on a well plate (white clear bottom 96 well plate, Corning). The compounds were diluted in dimethyl sulfoxide (3-fold dilution, total of 12 concentrations) and injected at 1 μl each so that the final concentration was 0.2 nM to 5 μM. After 72 hours post treatment with compounds, living cells were stored at room temperature for 10 minutes using CellTiter-Glo luminescent cell-viability reagent (Promega), and the luminescence intensity thereof was measured using a reader (Synergy Neo, Biotek). Each test was repeated three times. The result values were calculated as a cell growth rate (%) compared to the control group. A graph was created using the GraphPad Prism version 8.3.0 program, and GI50 values were calculated.

GI50 [µM] | SMILES
< 0.1 | COc1cc(N2CCC3(CC2)CCN(C(C)(C)CF)CC3)c(-c2cn(C)nc2F)cc1Nc1cc(N2OCC[C@@H]2c2cccc(F)c2F)ncn1 [Example 1, (R)-6-(3-(2,3-difluorophenyl)isoxazolidin-2-yl)-N-(5-(3-fluoro-1-methyl-1H-pyrazol-4-yl)-4-(9-(1-fluoro-2-methylpropan-2-yl)-3,9-diazaspiro[5.5]undecan-3-yl)-2-methoxyphenyl)pyrimidin-4-amine]
< 0.1 | COc1cc(N2CCC3(CC2)CCN(C(C)(C)CF)CC3)c(-c2cnn(C)c2)cc1Nc1cc(N2OCC[C@@H]2c2ccccc2)ncn1 [Example 10, (R)-N-(4-(9-(1-fluoro-2-methylpropan-2-yl)-3,9-diazaspiro[5.5]undecan-3-yl)-2-methoxy-5-(1-methyl-1H-pyrazol-4-yl)phenyl)-6-(3-phenylisoxazolidin-2-yl)pyrimidin-4-amine]
< 0.1 | COc1cc(N2CC3(CCN(C(C)(C)CF)CC3)C2)c(-c2cnn(C)c2)cc1Nc1cc(N2OCC[C@@H]2c2cccc(F)c2F)ncn1 [Example 14, (R)-6-(3-(2,3-difluorophenyl)isoxazolidin-2-yl)-N-(4-(7-(1-fluoro-2-methylpropan-2-yl)-2,7-diazaspiro[3.5]nonan-2-yl)-2-methoxy-5-(1-methyl-1H-pyrazol-4-yl)phenyl)pyrimidin-4-amine]

Tested on: Ba/F3 cells expressing EGFR Del19/C797S (EGFR DC)
Assay: Inhibition of proliferation of Ba/F3 cells expressing EGFR Del19/C797S (CellTiter-Glo, 72 h)
Format: cell-based
Conditions: Mus musculus, BaF3, 72 hours treatment
Description: as §1, §2, §3

GI50 [µM] | SMILES
< 0.1 | COc1cc(N2CCC3(CC2)CCN(C(C)(C)CF)CC3)c(-c2cn(C)nc2F)cc1Nc1cc(N2OCC[C@@H]2c2cccc(F)c2F)ncn1 [Example 1, (R)-6-(3-(2,3-difluorophenyl)isoxazolidin-2-yl)-N-(5-(3-fluoro-1-methyl-1H-pyrazol-4-yl)-4-(9-(1-fluoro-2-methylpropan-2-yl)-3,9-diazaspiro[5.5]undecan-3-yl)-2-methoxyphenyl)pyrimidin-4-amine]
< 0.1 | COc1cc(N2CCC3(CC2)CCN(C(C)(C)CF)CC3)c(-c2cnn(C)c2)cc1Nc1cc(N2OCC[C@@H]2c2ccccc2)ncn1 [Example 10, (R)-N-(4-(9-(1-fluoro-2-methylpropan-2-yl)-3,9-diazaspiro[5.5]undecan-3-yl)-2-methoxy-5-(1-methyl-1H-pyrazol-4-yl)phenyl)-6-(3-phenylisoxazolidin-2-yl)pyrimidin-4-amine]
< 0.1 | COc1cc(N2CC3(CCN(C(C)(C)CF)CC3)C2)c(-c2cnn(C)c2)cc1Nc1cc(N2OCC[C@@H]2c2cccc(F)c2F)ncn1 [Example 14, (R)-6-(3-(2,3-difluorophenyl)isoxazolidin-2-yl)-N-(4-(7-(1-fluoro-2-methylpropan-2-yl)-2,7-diazaspiro[3.5]nonan-2-yl)-2-methoxy-5-(1-methyl-1H-pyrazol-4-yl)phenyl)pyrimidin-4-amine]
0.1 to 1 | COc1cc(N2CCN(C)CC2)c(-c2ccsc2)cc1Nc1cc(N2OCC[C@@H]2c2cccc(F)c2F)ncn1 [Example 76, (R)-6-(3-(2,3-difluorophenyl)isoxazolidin-2-yl)-N-(2-methoxy-4-(4-methylpiperazin-1-yl)-5-(thiophen-3-yl)phenyl)pyrimidin-4-amine]
0.1 to 1 | COc1cc(N2CCN(C)CC2)c(-c2cnc3ccccc3c2)cc1Nc1cc(N2OCC[C@@H]2c2cccc(F)c2F)ncn1 [Example 78, (R)-6-(3-(2,3-difluorophenyl)isoxazolidin-2-yl)-N-(2-methoxy-4-(4-methylpiperazin-1-yl)-5-(quinolin-3-yl)phenyl)pyrimidin-4-amine]
0.1 to 1 | COc1cc(N2CCN(C)CC2)c(-c2ccncc2)cc1Nc1cc(N2OCC[C@@H]2c2cccc(F)c2F)ncn1 [Example 79, (R)-6-(3-(2,3-difluorophenyl)isoxazolidin-2-yl)-N-(2-methoxy-4-(4-methylpiperazin-1-yl)-5-(pyridin-4-yl)phenyl)pyrimidin-4-amine]
0.1 to 1 | COc1cc(N2CCC3(CC2)CN(C)CCO3)c(-c2cnn(C)c2)cc1Nc1cc(N2OCC[C@@H]2c2cccc(F)c2F)ncn1 [Example 83, (R)-6-(3-(2,3-difluorophenyl)isoxazolidin-2-yl)-N-(2-methoxy-5-(1-methyl-1H-pyrazol-4-yl)-4-(4-methyl-1-oxa-4,9-diazaspiro[5.5]undecan-9-yl)phenyl)pyrimidin-4-amine]
0.1 to 1 | COc1cc(N2CCSCC2)c(-c2cnn(C)c2)cc1Nc1cc(N2OCC[C@@H]2c2cccc(F)c2F)ncn1 [Example 85, (R)-6-(3-(2,3-difluorophenyl)isoxazolidin-2-yl)-N-(2-methoxy-5-(1-methyl-1H-pyrazol-4-yl)-4-thiomorpholinophenyl)pyri-midin-4-amine]
0.1 to 1 | Cn1cc(-c2cc(Nc3cc(N4OCC[C@@H]4c4cccc(F)c4F)ncn3)c3c(c2N2CCOCC2)OCCO3)cn1 [Example 96, (R)-6-(3-(2,3-difluorophenyl)isoxazolidin-2-yl)-N-(7-(1-methyl-1H-pyrazol-4-yl)-8-morpholino-2,3-dihydrobenzo[b][1,4]dioxin-5-yl)pyrimidin-4-amine]
< 0.1 | COc1cc(N2CCN(C)CC2)c(-c2cnn(C)c2)cc1Nc1cc(N2OCC[C@@H]2c2cccc(F)c2F)ncn1 [Example 98, (R)-6-(3-(2,3-difluorophenyl)isoxazolidin-2-yl)-N-(2-methoxy-5-(1-methyl-N-pyrazol-4-yl)-4-(4-methylpiperazin-1-yl)phenyl)pyrimidin-4-amine]
< 0.1 | COc1cc(N2CCN(C)CC2)c(-c2cnn(C3CC3)c2)cc1Nc1cc(N2OCC[C@@H]2c2cccc(F)c2F)ncn1 [Example 99, (R)-N-(5-(1-cyclopropyl-1H-pyrazol-4-yl)-2-methoxy-4-(4-methylpiperazin-1-yl)phenyl)-6-(3-(2,3-difluorophenyl)isoxazolidin-2-yl)pyrimidin-4-amine]
< 0.1 | COc1cc(N2CCC(N3CC(OC)C3)CC2)c(-c2cnn(C)c2)cc1Nc1cc(N2OCC[C@@H]2c2cccc(F)c2F)ncn1 [Example 102, (R)-6-(3-(2,3-difluorophenyl)isoxazolidin-2-yl)-N-(2-methoxy-4-(4-(3-methoxyazetidin-1-yl)piperidin-1-yl)-5-(1-methyl-1H-pyrazol-4-yl)phenyl)pyrimidin-4-amine]
< 0.1 | COc1cc(N2CCC3(CC2)CCN(C(C)(C)CF)CC3)c(-c2cn(C)nc2F)cc1Nc1cc(N2OCC[C@@H]2c2ccccc2)ncn1 [Example 103, (R)-N-(5-(3-fluoro-1-methyl-1H-pyrazol-4-yl)-4-(9-(1-fluoro-2-methylpropan-2-yl)-3,9-diazaspiro[5.5]undecan-3-yl)-2-methoxyphenyl)-6-(3-phenylisoxazolidin-2-yl)pyrimidin-4-amine]
0.1 to 1 | CCOc1cc(N2C[C@@H](C)O[C@@H](C)C2)c(-c2cnn(C)c2)cc1Nc1cc(N2OCC[C@@H]2c2cccc(F)c2F)ncn1 [Example 104, 6-((R)-3-(2,3-difluorophenyl)isoxazolidin-2-yl)-N-(4-((25,6R)-2,6-dimethylmorpholino)-2-ethoxy-5-(1-methyl-1H-pyrazol-4-yl)phenyl)pyrimidin-4-amine]
0.1 to 1 | CC(C)Oc1cc(N2C[C@H](C)O[C@@H](C)C2)c(-c2cnn(C)c2)cc1Nc1cc(N2OCC[C@@H]2c2cccc(F)c2F)ncn1 [Example 105, 6-((R)-3-(2,3-difluorophenyl)isoxazolidin-2-yl)-N--(4-((2S,6S)-2,6-dimethylmorpholino)-2-isopropoxy-5-(1-methyl-1H-pyrazol-4-yl)phenyl)pyrimidin-4-amine]
0.1 to 1 | COc1cc(N2C[C@H](C)O[C@@H](C)C2)c(-c2cnn(C)c2)cc1Nc1cc(N2OCC[C@@H]2c2cccc(F)c2F)ncn1 [Example 106, 6-((R)-3-(2,3-difluorophenyl)isoxazolidin-2-yl)-N-(4-((2S,6S)-2,6-dimethylmorpholino)-2-methoxy-5-(1-methyl-1H-pyrazol-4-yl)phenyl)pyrimidin-4-amine]
0.1 to 1 | COc1cc(N2C[C@@H](C)O[C@@H](C)C2)c(-c2cnn(C)c2)cc1Nc1cc(N2OCC[C@@H]2c2cccc(F)c2F)ncn1 [Example 107, 6-((R)-3-(2,3-difluorophenyl)isoxazolidin-2-yl)-N-(4-((2S,6R)-2,6-dimethylmorpholino)-2-methoxy-5-(1-methyl-1H-pyrazol-4-yl)phenyl)pyrimidin-4-amine]
0.1 to 1 | COc1cc(N2CCO[C@H](C)C2)c(-c2cnn(C)c2)cc1Nc1cc(N2OCC[C@@H]2c2cccc(F)c2F)ncn1 [Example 108, 6-((R)-3-(2,3-difluorophenyl)isoxazolidin-2-yl)-N-(2-methoxy-5-(1-methyl-1H-pyrazol-4-yl)-4-((R)-2-methylmorpholino)phenyl)py-rimidin-4-amine]
< 0.1 | COc1cc(N2CCC(C)(OC)CC2)c(-c2cnn(C)c2)cc1Nc1cc(N2OCC[C@@H]2c2cccc(F)c2F)ncn1 [Example 109, (R)-6-(3-(2,3-difluorophenyl)isoxazolidin-2-yl)-N-(2-methoxy-4-(4-methoxy-4-methylpiperidin-1-yl)-5-(1-methyl-1H-pyrazol-4-yl)phenyl)pyrimidin-4-amine]
0.1 to 1 | COc1cc(N2CCC(CN(C)C(C)(C)CF)CC2)c(-c2cnn(C)c2)cc1Nc1cc(N2OCC[C@@H]2c2cccc(F)c2F)ncn1 [Example 110, (R)-6-(3-(2,3-difluorophenyl)isoxazolidin-2-yl)-N-(4-(4-(((1-fluoro-2-methylpropan-2-yl)(methyl)amino)methyl)pi-peridin-1-yl)-2-methoxy-5-(1-methyl-1H-pyrazol-4-yl)phenyl)pyrimidin-4-amine]
0.1 to 1 | COc1cc(N2CC3(CCOCC3)C2)c(-c2cnn(C)c2)cc1Nc1cc(N2OCC[C@@H]2c2cccc(F)c2F)ncn1 [Example 111, (R)-6-(3-(2,3-difluorophenyl)isoxazolidin-2-yl)-N-(2-methoxy-5-(1-methyl-1H-pyrazol-4-yl)-4-(7-oxa-2-azaspiro[3.5]nonan-2-yl)phenyl)pyrimidin-4-amine]
0.1 to 1 | CN1CCN(C2CCN(c3c(-c4cnn(C)c4)cc(Nc4cc(N5OCC[C@@H]5c5cccc(F)c5F)ncn4)c4c3CCO4)CC2)CC1 [Example 112, (R)-6-(3-(2,3-difluorophenyl)isoxazolidin-2-yl)-N-(5-(1-methyl-1H-pyrazol-4-yl)-4-(4-(4-methylpiperazin-1-yl)piperidin-1-yl)-2,3-dihydrobenzofuran-7-yl)pyrimidin-4-amine]
< 0.1 | CN1CCN(c2c(-c3cnn(C)c3)cc(Nc3cc(N4OCC[C@@H]4c4cccc(F)c4F)ncn3)c3c2OCO3)CC1 [Example 113, (R)-6-(3-(2,3-difluorophenyl)isoxazolidin-2-yl)-N-(6-(1-methyl-1H-pyrazol-4-yl)-7-(4-methylpiperazin-1-yl)benzo[d][1,3]dioxol-4-yl)pyrimidin-4-amine]
